Like-named read-outs stand apart in the source and are kept apart here.
B1: STIM1-1140 short hairpin siRNA: Short hairpin siRNA corresponding to STIM1-1140, expressed from pSilencer 2.1-U6 neo in stable Jurkat clone 4A5 (nucleic acid)
chain 1: GATCCCGGCTCTGGATACAGTGCTCTTCAAGAGAGAGCACTGTATCCAGAGCCTTTTTTGGAAA
chain 2: AGCTTTTCCAAAAAAGGCTCTGGATACAGTGCTCTCTCTTGAAGAGCACTGTATCCAGAGCCGG
modifications: target site or template, no part of the molecule

Legend:
[1] = system: store-operated calcium entry (SOCE); details: read-out: IC50 for inhibition of calcium entry; HEK-Zeo control cells; thapsigargin-mediated store depletion followed by readdition of external calcium
Procedure: The relative cation permeability was assessed in HEK-Zeo and in HEK[STIM1] cells. Cells were loaded with Fluo-4 and treated with thapsigargin to discharge intracellular Ca^2+ stores (HEK-Zeo cells), or vehicle-treated (both HEK-Zeo and HEK[STIM1] cells). After 15 minutes, 10 mM BaCl2 (final concentration), 10 mM SrCl2 (final concentration), or 1.8 mM CaCl2 (final concentration) was added to elicit cation influx. To quantify the rate of cation influx, the first 30 seconds of data following cation addition was analyzed by linear regression.

STIM1-induced Ca2+ entry = details: HEK[STIM1] cells, absence of store depletion
Procedure: (§1) For stable cell lines overexpressing STIM1, pcDNA[STIM1/542-5] was transfected into 3×10^5 HEK293 cells using Effectene (QIAGEN) transfection reagent following the manufacturer's protocol. Forty-eight hours after transfection, cells were harvested and replated under selection with 250 μg/ml Zeocin (Invitrogen). Colonies were selected, amplified, and evaluated for expression of STIM1 mRNA and protein by RT-PCR and western blot, respectively. Limiting dilution of the STIM1 overexpressing colonies generated individual clones.

[2] = system: store-operated calcium entry (SOCE); details: read-out: IC50 for inhibition of calcium entry; HEK[STIM1] cells; thapsigargin-mediated store depletion followed by readdition of external calcium
Procedure: as §1

Jurkat T cells = test: IL-2 secretion from Jurkat T cells (ELISA); type: cell-based, human; details: Jurkat clone 4A5; 2.5 μg/ml PHA + 80 nM TPA for 20 hours
Source text: To test this prediction, a stable Jurkat T cell line expressing a short hairpin siRNA to suppress expression of STIM1 was generated as follows. Oligonucleotides corresponding to the STIM1-1140 siRNA (sense oligo, 5′-GATCCCGGCTCTGGATACAGTGCTCTTCAAGAGAGAGCACTGTATCCAGAGCCTTTTTTGGAAA-3′ SEQ ID NO: 99; antisense oligo, 5′-AGCTTTTCCAAAAAAGGCTCTGGATACAGTGCTCTCTCTTGAAGAGCACTGTATCCAGAGCCGG-3′ SEQ ID NO: 100) were annealed and ligated into pSilencer 2.1-U6 neo (Ambion) according to the manufacturer's protocol. Correct inserts were verified by DNA sequencing. For the control, a non-silencing scrambled siRNA (Negative Control oligo; Ambion) was generated as above. 2×10^6 Jurkat T cells were electroporated with 5 μg plasmid using a Bio-Rad Gene Pulser (140V, 30 msec, 4 pulses). Two days after transfection, cells were harvested and resuspended in media containing G-418 selection at a concentration of 1×10^4 cells/ml. 1 ml of cells/well was plated in 24-well plates. […]
To measure IL-2 secretion from Jurkat T cells, cells were plated in a 96 well plate at a density of 1.5×10^5 cells/well. […] The media was collected and analyzed for IL-2 levels by ELISA (BioSource) according to the manufacturer's protocols. […]

| Molecule | IC50 [1] | effect on calcium entry at lower concentrations (STIM1-induced Ca2+ entry; lower concentrations of 2-APB (biphasic effect)) | IC50 (STIM1-induced Ca2+ entry; read-out: IC50 for inhibition of constitutive calcium entry) | IC50 [2] | secretion of IL-2 upon stimulation (Jurkat T cells) |
| --- | --- | --- | --- | --- | --- |
| NCCOB(c1ccccc1)c1ccccc1 [2-APB, 2-aminoethoxydiphenyl borate] | 11.8 µM | potentiated | 10.8 µM | 10.5 µM |  |
| B1 |  |  |  |  | completely blocked |
